Data on 2 compounds can be found in patent US10144730B2, “Inhibitors of c-Jun-N-terminal kinase (JNK)” (Dana-Farber Cancer Institute, Inc., priority 2011, dated 2018).

The test system of assay [1] is c-Jun phosphorylation. Put plainly: LanthaScreen TR-FRET cell assay for c-Jun phosphorylation in HeLa cells. It is filed as cell-based. The settings on record: Homo sapiens; Hela cells, TNF-α stimulation; read-out: p-c-Jun EC50 (nM) Hela. A general note: Time-resolved FRET reads energy transfer from a long-lived donor to a nearby acceptor.
Assay [2] has as its system phosphorylation of Akt. Put plainly: High-throughput microscopy, phosphorylation of Akt. It is filed as cell-based. The settings on record: Homo sapiens, A-375, A375 cells, IGF-1 stimulation, read-out: Cellular EC50 pAkt. Here is the method: A375 cells were stimulated with anisomycin (FIGS. 14A and 14C to 14F), IGF-1 (FIG. 14B), IL-6 (FIG. 14G), and TNF-α (FIG. 14H) for sixty minutes. The output of multiple signaling pathways was measured using high throughput microscopy at multiple concentrations of four JNK inhibitors and a control compound specific to each pathway DMSO (FIG. 14A), MK2206 (allosteric Akt inhibitor, Haoyuan Chemexpress Co., Limited. Hirai, et al., 2010) (FIG. 14B), PD0325901 (allosteric Mek inhibitor, Haoyuan Chemexpress Co., Limited. Barrett, et al., 2008) (FIGS. 14C and 14D), SB239063 (ATP-competitive p38 inhibitor, Haoyuan Chemexpress Co., Limited. Underwood et al., 2000) (FIGS. 14E and 14F), KIN001-040 (ATP-competitive JAK1,2,3 inhibitor, Haoyuan Chemexpress Co., Limited. Thompson et al., 2002) (FIG. 14G), and KIN001-208 (IKK inhibitor VIII, Haoyuan Chemexpress Co., Limited., Murata, et al., 2004) (FIG. 14H).
Cells were plated at 7500 cells/well in 96-well microscopy plates (Corning) in recommended media for 24 hours, and then starved in media lacking serum for 16 hours. Cells were pre-treated for 180 minutes with 10-fold stock solutions of JNK inhibitors and for 10 min with control compounds MK2206, PD0325901, SB239063, KIN040, and KIN208 and treated with 10-fold stock solutions of IGF-1, IL-6, TNF-α (all PeproTech), or anisomycin for 60 minutes. Cells were fixed in 2% paraformaldehyde for 10 min at room temperature and washed with PBS-T (Phosphate Buffered Saline, 0.1% Tween 20). Cells were permeabilized in methanol for 10 min at room temperature, washed with PBS-T, and blocked in Odyssey Blocking Buffer (LI-COR Biosciences) for 1 hour at room temperature. Cells were incubated overnight at 4° C. with antibody specific for Erk1/2(pT202/pY204), Akt(pS473), c-Jun(pS73), pP38(T180/Y182) and pSTAT3(Y705) (Cell Signaling Technology), pRSK1(S380) and pMSK1(S376) (Epitomics), and NF-κB (Santa Cruz Biotechnology) diluted 1:400 in Odyssey Blocking Buffer. Cells were washed three times in PBS-T and incubated with rabbit-specific secondary antibody labeled with Alexa Fluor 647 (Invitrogen) diluted 1:2000 in Odyssey Blocking Buffer. Cells were washed once in PBS-T and once in PBS and incubated in 250 ng/ml Hoechst 33342 (Invitrogen) and 1:1000 Whole Cell Stain (blue; Thermo Scientific) solution. Cells were washed twice with PBS and imaged in an imageWoRx high-throughput microscope (Applied Precision). Data were plotted using DataPflex. […]

For assay [3], the system named is phosphorylation of Msk1. Put plainly: High-throughput microscopy, phosphorylation of Msk1. It is filed as cell-based. The conditions noted are these: Homo sapiens, A-375, A375 cells, anisomycin stimulation, read-out: Cellular EC50 pMSK1. The procedure: A375 cells were stimulated with anisomycin (FIGS. 14A and 14C to 14F), IGF-1 (FIG. 14B), IL-6 (FIG. 14G), and TNF-α (FIG. 14H) for sixty minutes.
Cells were fixed in 2% paraformaldehyde for 10 min at room temperature and washed with PBS-T (Phosphate Buffered Saline, 0.1% Tween 20). Cells were permeabilized in methanol for 10 min at room temperature, washed with PBS-T, and blocked in Odyssey Blocking Buffer (LI-COR Biosciences) for 1 hour at room temperature. Cells were incubated overnight at 4° C. with antibody specific for Erk1/2(pT202/pY204), Akt(pS473), c-Jun(pS73), pP38(T180/Y182) and pSTAT3(Y705) (Cell Signaling Technology), pRSK1(S380) and pMSK1(S376) (Epitomics), and NF-κB (Santa Cruz Biotechnology) diluted 1:400 in Odyssey Blocking Buffer. […] Cells were washed twice with PBS and imaged in an imageWoRx high-throughput microscope (Applied Precision). Data were plotted using DataPflex.

In assay [4] the target is panel of 442 distinct kinases. As to the kind of experiment: KINOMEscan kinase-binding panel. The conditions noted are these: screening concentration of 1 μM.

For orientation: EC50 means the concentration that produces a half-maximal response. With `Cc1cc(NC(=O)c2cccc(NC(=O)/C=C/CN(C)C)c2)ccc1Nc1nccc(-c2cccnc2)n1` [JNK-IN-8], the 50% effective concentration (EC50) in assay [1] is 486 nM; in assay [2], more than 10 µM; in assay [3], more than 10 µM.
`CN(C)C/C=C/C(=O)Nc1cccc(C(=O)Nc2ccc(Nc3nccc(/C(C#N)=C4\Nc5ccccc5S4)n3)cc2)c1` [JNK-IN-12]: the EC50 in assay [1] was 605 nM; in assay [2], more than 10 µM; in assay [3] it was more than 10 µM. Besides, in assay [4], the “KINOMEscan S score (ratio number of kinases inhibited more than 90 percent)” value was 0.025.
